Assay results reported in article PMC9721426, “Novel piperine-carboximidamide hybrids: design, synthesis, and antiproliferative activity via a multi-targeted inhibitory pathway” (Journal of Enzyme Inhibition and Medicinal Chemistry, 2022).
Like-named read-outs stand apart in the source and are kept apart here.

Key:
p38α = test system: p38α; design: method as in earlier work; conditions: cited from earlier work
BRAF^V600E [1] = test system: BRAF^V600E; design: method as in earlier work; conditions: cited from earlier work
EGFR [2] = target: T1, EGFR (Homo sapiens, UniProt P00533); design: method as in PMID 35667253; conditions: cited from earlier work
T1 construct: cytoplasmic domain (EGFR -CD, amino acids 645–1186); His6 (N); made in house; host or cells: Sf-9 insect cells (baculovirus, pBlueBacHis2B / pFASTBacHTc)
T1 sequence (P00533 669-1210): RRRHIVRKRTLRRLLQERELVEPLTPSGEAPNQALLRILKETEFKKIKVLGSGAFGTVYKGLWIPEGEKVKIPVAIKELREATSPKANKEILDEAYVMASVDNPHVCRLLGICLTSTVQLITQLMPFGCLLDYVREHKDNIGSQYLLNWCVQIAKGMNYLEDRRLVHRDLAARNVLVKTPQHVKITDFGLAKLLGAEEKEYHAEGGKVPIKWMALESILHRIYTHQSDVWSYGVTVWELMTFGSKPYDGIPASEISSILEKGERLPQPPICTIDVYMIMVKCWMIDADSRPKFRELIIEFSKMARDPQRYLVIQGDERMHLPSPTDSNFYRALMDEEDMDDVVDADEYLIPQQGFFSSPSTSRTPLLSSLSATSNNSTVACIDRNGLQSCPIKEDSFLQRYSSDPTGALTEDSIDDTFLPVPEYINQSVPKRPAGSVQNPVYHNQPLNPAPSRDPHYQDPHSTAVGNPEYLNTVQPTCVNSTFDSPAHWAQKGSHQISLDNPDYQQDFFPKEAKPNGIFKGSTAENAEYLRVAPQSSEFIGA

c-Met = test system: c-Met; design: method as in PMID 35667253; conditions: cited from earlier work
four cancer cell lines = test system: four cancer cell lines; design: method as in PMID 35667253; conditions: read-out: GI50 against the tested four cancer cell lines; cited from earlier work
CDK2 = test system: CDK2; design: method as in PMID 35667253; conditions: cited from earlier work
[3] = test system: four human cancer cell lines (Panc-1, MCF-7, HT-29, A-549); experiment: Antiproliferative MTT assay, average (GI50) over the four cancer cell lines; type: cell-based; conditions: for GI50: Homo sapiens, average of IC50 versus A-549, MCF-7, Panc-1, HT-29; for GI50 potency relative to VIi (less potent): ratio of GI50 values
Method: The average (GI50) versus the four cancer cell lines was chosen for ease of manipulation.
(§1) The MTT assay was performed using various cell lines in accordance with previously reported procedures[28]^,[29] to investigate the antiproliferative potential of VIa-k. Refer to Appendix A. […]
(§2) added (in 200 μL medium to yield a final concentration of 0.1% v/v) to the wells of plates. A single compound was designated with four wells followed by incubation of […]
(§3) After incubation, medium was removed completely from the plates followed by addition of MTT (0.4 mg/mL in medium) to each well and subsequent incubation of plates for 3h. MTT (along with the medium) was removed and DMSO (150μL) was added to each well of the culture plates, followed by vortexing and subsequent measurement of absorbance (at 540 nm) using microplate reader. The data are shown as percentage inhibition of proliferation in comparison with controls containing 4.2.1.2. Assay for antiproliferative effect […]
(§4) The percentage cytotoxicity of compounds was calculated using the following […]
(§5) Where ATC= Absorbance of treated cells and AC= Absorbance of control. […]
(§6) used as positive control in the assay. […]

[4] = test system: A-549 (epithelial cancer cell line); experiment: Antiproliferative MTT assay, A-549; type: cell-based; conditions: Homo sapiens, A549; A-549, MTT; read-out: Antiproliferative activity IC50 ± SEM, A-549
Method: as §1, §2, §3, §4, §5, §6

[5] = test system: HT-29 (colon cancer cell line); experiment: Antiproliferative MTT assay, HT-29; type: cell-based; conditions: Homo sapiens; HT-29, MTT; read-out: Antiproliferative activity IC50 ± SEM, HT-29
Method: as §1, §2, §3, §4, §5, §6

[6] = MTT cell viability assay on normal mammary epithelial cells; type: cell-based; conditions: human, MCF-10A mammary epithelial cells, MCF-10A normal cells, 4 days incubation
Method: A human mammary gland epithelial (MCF-10A) normal cell line was used to perform the viability test. The viability of compounds VIa-k was determined using the MTT assay after 4 days of incubation with MCF-10A cells[26]^,[27].
The MTT assay was used to assess how the synthetic compounds impacted the viability of mammary epithelial cells (MCF-10A)[26]^,[27]. Appendix A. […]
4.2. Biological evaluation
4.2.1. Cytotoxic activity using MTT Assay and evaluation of IC50
MTT assay was carried out to study the effect of compounds on mammary epithelial cells (MCF-10A)26,27. The medium in which cells were propagated contained Dulbecco's modified Eagle's medium (DMEM)/ Ham's F-12 medium (1:1) supplemented with epidermal growth factor (20 ng/mL), hydrocortisone (500 ng/mL), insulin (10 μg/mL), 2 mM glutamine and 10% foetal calf serum. After every 2-3 days, the cells were passaged using trypsin ethylenediamine tetra acetic acid (EDTA). The cells were seeded at a density of 10^4 cells mL-1 in flat-bottomed culture plates containing 96 wells each. […]
A single compound was designated with four wells followed by incubation of plates for 96h at 37°C. After incubation, medium was removed completely from the plates followed by addition of MTT (0.4 mg/mL in medium) to each well and subsequent incubation of plates for 3h. MTT (along with the medium) was removed and DMSO (150μL) was added to each well of the culture plates, followed by vortexing and subsequent measurement of absorbance (at 540 nm) using microplate reader. […]

[7] = test system: Panc-1 (pancreatic cancer cell line); experiment: Antiproliferative MTT assay, Panc-1; type: cell-based; conditions: Homo sapiens; Panc-1, MTT; read-out: Antiproliferative activity IC50 ± SEM, Panc-1
Method: as §1, §2, §3, §4, §5, §6

[8] = test system: MCF-7 (breast cancer cell line); experiment: Antiproliferative MTT assay, MCF-7; type: cell-based; conditions: Homo sapiens, MCF7; MCF-7, MTT; read-out: Antiproliferative activity IC50 ± SEM, MCF-7
Method: as §1, §2, §3, §4, §5, §6

BRAF^V600E [9] = target: T2, BRAF^V600E (Mus musculus, UniProt P28028, V585E); experiment: BRAF V600E kinase assay; type: biochemical; conditions: read-out: BRAF^V600E inhibition IC50 ± SEM
T2 construct: Mouse full-length GST-tagged BRAFV600E; GST; purchased Invitrogen PV3849
T2 sequence (P28028 whole entry V585E): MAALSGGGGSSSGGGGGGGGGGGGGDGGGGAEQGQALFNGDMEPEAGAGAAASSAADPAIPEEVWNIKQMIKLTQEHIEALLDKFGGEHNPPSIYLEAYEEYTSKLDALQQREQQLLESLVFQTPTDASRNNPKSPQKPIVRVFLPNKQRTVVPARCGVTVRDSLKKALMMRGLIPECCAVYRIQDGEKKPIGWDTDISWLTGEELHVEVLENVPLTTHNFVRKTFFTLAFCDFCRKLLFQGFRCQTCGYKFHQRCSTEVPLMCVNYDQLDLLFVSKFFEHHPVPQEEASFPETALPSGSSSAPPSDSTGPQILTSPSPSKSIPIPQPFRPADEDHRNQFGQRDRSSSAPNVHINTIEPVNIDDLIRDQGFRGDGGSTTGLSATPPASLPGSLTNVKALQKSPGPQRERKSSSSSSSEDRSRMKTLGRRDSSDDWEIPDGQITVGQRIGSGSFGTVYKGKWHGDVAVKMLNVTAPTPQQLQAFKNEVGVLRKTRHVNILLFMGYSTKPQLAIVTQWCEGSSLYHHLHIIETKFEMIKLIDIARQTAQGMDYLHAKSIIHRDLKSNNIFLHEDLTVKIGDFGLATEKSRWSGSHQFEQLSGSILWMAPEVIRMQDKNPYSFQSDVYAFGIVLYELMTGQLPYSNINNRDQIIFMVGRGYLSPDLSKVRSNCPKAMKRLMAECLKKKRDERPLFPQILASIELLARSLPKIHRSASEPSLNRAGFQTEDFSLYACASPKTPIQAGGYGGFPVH
Method: An in vitro study was conducted to evaluate the anti-BRAF^V600E of VIc, VIf, VIg, VIi, and VIk[31]. […] An in vitro study[31] was conducted to evaluate the anti-BRAF^V600E of VIc, VIf, VIg, VIi, and Vik. See Appendix A.
4.2.1.4. BRAF kinase assay
V600E mutant BRAF kinase assay was performed to investigate the activity of the most […]
Mouse full-length GST-tagged BRAFV600E (7.5 ng, Invitrogen, PV3849) was pre-incubated with drug (1 µL) and assay dilution buffer (4 µL) for 60 min at 25 °C. In assay dilution buffer, a solution (5 µL) containing MgCl 2 (30 mM), ATP (200 µM), recombinant human full length (200 ng) […] N-terminal His-tagged MEK1 (Invitrogen) was added to start the assay, subsequent to incubation for 25 min at 25 °C. The assay was stopped using 5X protein denaturing buffer (LDS) solution (5 µL).
To further denature the protein, heat (70° C) was applied for 5 min.
NuPage gel plates (Invitrogen) were used to carry out electrophoresis (at 200 V). 10 µL of each reaction was loaded into the precast plates and electrophoresis was allowed to proceed. After completion of electrophoresis, the front part of the precast gel plate (holding hot ATP) was cut and afterw ards cast-off. The dried gel was developed using a […]
that containing no inhibitor served as positive control. […]

EGFR [10] = target: T1, EGFR; experiment: EGFR-TK inhibitory assay; type: biochemical; conditions: for IC50: EGFR-TK assay, read-out: EGFR inhibition IC50 ± SEM
Method: 4.2.1.3. EGFR inhibitory assay
EGFR-TK assay was performed to evaluate the inhibitory potency of the tested compounds against EGFR30. Baculoviral expression vectors including pBlueBacHis2B […]
sequence comprised a sequence that encoded (His) 6. Sf-9 cells were infected for 72h for protein expression. The pellets of Sf-9 cells were solubilized in a buffer containing sodium vanadate (100 µM), aprotinin (10 µg/mL), triton (1%), HEPES buffer (50mM), ammonium molybdate (10 µM), benzamidine HCl (16 µg/mL), NaCl (10 mM), leupeptin (10 µg/mL) and pepstatin (10 µg/mL) at 0°C for 20 min at pH 7.4, followed by centrifugation for 20 min. To eliminate the non-specifically bound material, a Ni-NTA super flow packed column was used to pass through and wash the crude extract supernatant first with 10 mM and then with 100 mM imidazole. […]
NaCl (50 mM), HEPES (20 mM), glycerol (10%) and 1 µg/mL each of aprotinin, leupeptin and pepstatin for 120 min. The purification was performed either at 4 °C or on ice. To record autophosphorylation level, EGFR kinase assay was carried out on the basis of DELFIA/Time-Resolved Fluorometry. The compounds were first dissolved in DMSO […]
pH 7.4. Each compound (10 µL) was incubated with recombinant enzyme (10 µL, 5 ng for EGFR, 1:80 dilution in 100 mM HEPES) for 10 min at 25 °C, subsequent to the addition of 5X buffer (10 µL, containing 2 mM MnCl2, 100 µM Na3VO4, 20 mM HEPES and 1 mM DTT) and ATP-MgCl2 (20 µL, containing 0.1 mM ATP and 50 mM MgCl 2) and incubation for 1h. The negative and positive controls were included in each plate by the incuba tion of enzyme either with or without ATP -MgCl2. The liquid was removed after incubation and the plates were washed thrice using wash buffer. Europium -tagged antiphosphotyrosine antibody (75 µL, 400 ng) was added to each well followed by incubation of 1h a nd then washing of the plates using buffer. The enhancement solution was added to each well and the signal was recorded at excitation and emission […]
The autophosphorylation percentage inhibition by compounds was calculated using the following equation: […]
Using the curves of percentage inhibition of eight concentrations of each compound, IC 50

Human CDK2/A2 = Human CDK2/A2 (Homo sapiens, UniProt P24941); experiment: CDK2 inhibitory assay
Method: Protein Kinase Assays. Human CDK2/A2 was purchased from New England Biolabs IC50 values for CDK2/A were determined according to the supplier’s instructions

SMILES | melting point | GI50 [3] | IC50 [4] | IC50 [5] | IC50 [7] | IC50 [8] | GI50 potency relative to VIi (less potent) [3] | IC50 (BRAF^V600E [9]) | IC50 (EGFR [10]) | EGFR potency relative to erlotinib (lower) (EGFR [10]; ratio of IC50 values) | IC50 (Human CDK2/A2) | IC50 (p38α) | IC50 (BRAF^V600E [1]) | IC50 (EGFR [2]) | IC50 (c-Met) | GI50 (four cancer cell lines) | IC50 (CDK2) | viability at 4 days, 50 µM [6]
CCCCCCn1c(-c2ccc(C(=O)O/N=C(\N)c3cccc4c3OCO4)cc2)nc(-c2ccccc2)c1-c1ccccc1 [Compound 4] |  |  |  |  |  |  |  |  |  |  |  | 190 nM | 330 nM |  |  |  |  | 
COc1cc(OC)cc(/C(N)=N/OC(=O)c2ccc3cn[nH]c3c2)c1 [Compound 5] |  |  |  |  |  |  |  |  |  |  |  |  |  | 89 nM | 4.1 nM | 770 nM | 14 nM | 
COc1ccc(C(N)=NOC(=O)/C=C/C=C/c2ccc3c(c2)OCO3)cc1 [VId, N'-{[(2E,4E)-5-(2H-1,3-Benzodioxol-5-yl)penta-2,4-dienoyl]oxy}-4-methoxybenzene-1-carboximidamide] |  | 54 nM | 50 ± 5 nM | 57 ± 5 nM | 57 ± 5 nM | 52 ± 5 nM | about 1.4 fold |  |  |  |  |  |  |  |  |  |  | 91%
NC(=NOC(=O)/C=C/C=C/c1ccc2c(c1)OCO2)c1cccc(Br)c1 [VIh, N'-{[(2E,4E)-5-(2H-1,3-benzodioxol-5-yl)penta-2,4-dienoyl]oxy}-3-bromobenzene-1-carboximidamide] | 141 to 143 °C | 65 nM | 61 ± 6 nM | 67 ± 6 nM | 69 ± 6 nM | 64 ± 6 nM |  |  |  |  |  |  |  |  |  |  |  | 91%
COc1ccc(C(N)=NOC(=O)/C=C/C=C/c2ccc3c(c2)OCO3)cc1OC [VIi, N'-{[(2E,4E)-5-(2H-1,3-benzodioxol-5-yl)penta-2,4-dienoyl]oxy}-3,4-dimethoxybenzene-1-carboximidamide] | 147 to 149 °C | 39 nM | 36 ± 4 nM | 40 ± 4 nM | 40 ± 4 nM | 39 ± 3 nM |  | 72 ± 7 nM | 120 ± 10 nM |  | 17 ± 2 nM |  |  |  |  |  |  | 89%
N/C(=N/OC(=O)/C=C/C=C/c1ccc2c(c1)OCO2)c1cccc2ccccc12 [VIj, N'-{[(2E,4E)-5-(2H-1,3-benzodioxol-5-yl)penta-2,4-dienoyl]oxy} naphthalene-1-carboximidamide] |  | 83 nM | 78 ± 8 nM | 88 ± 9 nM | 84 ± 8 nM | 81 ± 8 nM | 2 fold |  |  |  |  |  |  |  |  |  |  | 85%

More lines, main results first:

melting point | GI50 [3] | IC50 [4] | IC50 [5] | IC50 [7] | IC50 [8] | GI50 potency relative to VIi (less potent) [3] | IC50 (BRAF^V600E [9]) | IC50 (EGFR [10]) | EGFR potency relative to erlotinib (lower) (EGFR [10]; ratio of IC50 values) | IC50 (Human CDK2/A2) | SMILES | IC50 (p38α) | IC50 (BRAF^V600E [1]) | IC50 (EGFR [2]) | IC50 (c-Met) | GI50 (four cancer cell lines) | IC50 (CDK2) | viability at 4 days, 50 µM [6]
175 to 177 °C | 100 nM | 95 ± 10 nM | 105 ± 10 nM | 104 ± 10 nM | 97 ± 10 nM |  |  |  |  |  | NC(=NOC(=O)/C=C/C=C/c1ccc2c(c1)OCO2)c1ccccc1 [VIa, N'-{[(2E,4E)-5-(2H-1,3-Benzodioxol-5-yl)penta-2,4-dienoyl]oxy}benzene carboximidamide] |  |  |  |  |  |  | 89%
157 to 160 °C | 57 nM | 55 ± 6 nM | 58 ± 6 nM | 59 ± 6 nM | 57 ± 6 nM |  |  |  |  |  | NC(=NOC(=O)/C=C/C=C/c1ccc2c(c1)OCO2)c1ccc(Cl)cc1 [VIb, N'-{[(2E,4E)-5-(2H-1,3-Benzodioxol-5-yl)penta-2,4-dienoyl]oxy}-4-chlorobenzene-1-carboximidamide] |  |  |  |  |  |  | 85%
185 to 188 °C | 73 nM | 69 ± 7 nM | 75 ± 7 nM | 75 ± 7 nM | 73 ± 7 nM |  |  |  |  |  | Cc1ccc(C(N)=NOC(=O)/C=C/C=C/c2ccc3c(c2)OCO3)cc1 [VIe, N'-{[(2E,4E)-5-(2H-1,3-Benzodioxol-5-yl)penta-2,4-dienoyl]oxy}-4-methylbenzene-1-carboximidamide] |  |  |  |  |  |  | 89%
163 to 165 °C | 47 nM | 42 ± 5 nM | 49 ± 5 nM | 49 ± 5 nM | 47 ± 5 nM |  | 63 ± 6 nM | 96 ± 6 nM | 1.2 fold | 20 ± 2 nM | NC(=NOC(=O)/C=C/C=C/c1ccc2c(c1)OCO2)c1cccc(Cl)c1 [VIg, N'-{[(2E,4E)-5-(2H-1,3-benzodioxol-5-yl)penta-2,4-dienoyl]oxy}-3-chlorobenzene-1-carboximidamide] |  |  |  |  |  |  | 87%
